The record followed here is ChEMBL document CHEMBL1201862, “PubChem BioAssay data set” (2004).

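Growth conditions: 96-well plates. Treatment: test compound, 48 hours, 5 concentrations. Analysis: linear interpolation between bracketing concentrations; unreached endpoints set to highest concentration. At the GI50, growth is halved.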 The source made the active and inactive calls. No stated cut-off is given here; in the data, active = GI50 up to about 1.1 µM and inactive = higher.

Test systems include DU-145; MCF7; UACC-257; Hs-578T; OVCAR-4; A549; EKVX; HOP-62; M14; 786-0; SF-295; BT-549; SNB-75; MDA-MB-231; SK-MEL-2; CAKI-1; LOX IMVI; ACHN; MDA-MB-435; NCI-H226.
Common to all, as to test: NCI anticancer screen, dose series, 48 h

As to `CCOC(=O)c1c2ccccc2n2c(N)c(C(N)=O)nnc12`, the GI50 was > 100 µM (inactive) with DU-145; 17.7 µM (inactive) with MCF7; 99.8 µM (inactive) in the experiment with UACC-257; 4.36 µM (inactive) in the experiment on Hs-578T; > 100 µM (inactive) in the experiment with OVCAR-4; > 100 µM (inactive) in the experiment with A549. Besides, the GI50 in the experiment with EKVX is 18 µM (inactive); with HOP-62, 17.3 µM (inactive); in the experiment with M14, > 100 µM (inactive); with 786-0, 21.9 µM (inactive); in the experiment with SF-295, 33.1 µM (inactive); with BT-549, 22.1 µM (inactive). The GI50 is 11.7 µM (inactive) in the experiment on SNB-75; 18.7 µM (inactive) with MDA-MB-231; 20.5 µM (inactive) in the experiment with SK-MEL-2; 32.8 µM (inactive) in the experiment with CAKI-1; 28.2 µM (inactive) in the experiment on LOX IMVI; 6.07 µM (inactive) with ACHN. In the experiment with MDA-MB-435, the GI50 was > 100 µM (inactive).
On to `CCCCCCCCCCCCCCCCCCOc1ccc(/C=C/C2=[N+](CCCl)CCO2)cc1`, for which the GI50 with DU-145, with MCF7, with UACC-257, in the experiment with Hs-578T, with OVCAR-4 and with A549 was > 100 µM (inactive) in each case. In addition, the GI50 in the experiment on EKVX, with HOP-62, in the experiment on M14, in the experiment on 786-0, in the experiment on SF-295 and with BT-549 was > 100 µM (inactive) each time. Also, the GI50 in the experiment with SNB-75 is 3.54 µM (inactive); in the experiment on MDA-MB-231 it was 41 µM (inactive); in the experiment with SK-MEL-2 it was > 100 µM (inactive); in the experiment on CAKI-1, > 100 µM (inactive); in the experiment with LOX IMVI, > 100 µM (inactive); with ACHN, > 100 µM (inactive). The GI50 with MDA-MB-435 is > 100 µM (inactive).
`COc1cc(/C=C2\CCC(C)/C(=C\c3cc(OC)c(OC)c(OC)c3)C2=O)cc(OC)c1OC` (stereo unspecified): the GI50 in the experiment with DU-145 was 7.66 µM (inactive); with MCF7, 2.89 µM (inactive); with UACC-257, 3.78 µM (inactive); in the experiment on Hs-578T, 8.81 µM (inactive); with A549, 2.79 µM (inactive); in the experiment on EKVX it was 3.21 µM (inactive). Further, the GI50 with HOP-62 is 3.63 µM (inactive); with M14 it was 1.96 µM (inactive); in the experiment with 786-0, 3.75 µM (inactive); with BT-549, 1.02 µM (active); in the experiment on SNB-75 it was 18.2 µM (inactive); in the experiment with MDA-MB-231, 8.41 µM (inactive). Moreover, the GI50 in the experiment on SK-MEL-2 is 1.67 µM (inactive); in the experiment with CAKI-1, 2.99 µM (inactive); in the experiment with LOX IMVI, 3.27 µM (inactive); in the experiment with ACHN, 3.02 µM (inactive); in the experiment on MDA-MB-435, 3.03 µM (inactive).
Turning to `ClC1(c2ccccc2)c2ccc(Br)cc2-c2cc(Br)ccc21`, the GI50 in the experiment with DU-145 was 22.6 µM (inactive); with MCF7 it was 19 µM (inactive); in the experiment with UACC-257 it was 18.3 µM (inactive); in the experiment with Hs-578T, 19.9 µM (inactive); in the experiment on OVCAR-4, 14.1 µM (inactive); in the experiment with A549, 17.1 µM (inactive). Besides, the GI50 was 17.9 µM (inactive) in the experiment on EKVX; 19.3 µM (inactive) with HOP-62; 14.2 µM (inactive) in the experiment on M14; 16.6 µM (inactive) with 786-0; 17.9 µM (inactive) with SF-295; 17.2 µM (inactive) in the experiment on BT-549. For the same compound, the GI50 is 16.7 µM (inactive) with MDA-MB-231; 17.8 µM (inactive) with SK-MEL-2; 14.9 µM (inactive) in the experiment on CAKI-1; 17.8 µM (inactive) in the experiment with LOX IMVI; 17.4 µM (inactive) in the experiment on NCI-H226; 16.1 µM (inactive) with ACHN. Moreover, in the experiment on MDA-MB-435, the GI50 is 13.5 µM (inactive).
In the case of `C[C@]12Cc3cnn(-c4ccc(F)cc4)c3NC1CC[C@@H]1C2CC[C@@]2(C)C1CC[C@@H]2O` (stereo partly specified), the GI50 in the experiment on DU-145 was 5.42 µM (inactive); in the experiment with MCF7 it was 4.32 µM (inactive); with UACC-257, 5.24 µM (inactive); in the experiment on Hs-578T, 3.1 µM (inactive); with OVCAR-4 it was 13.2 µM (inactive); with A549 it was 4.14 µM (inactive). For the same compound, the GI50 in the experiment with EKVX is 4.75 µM (inactive); in the experiment with HOP-62, 9.75 µM (inactive); in the experiment on M14, 11.1 µM (inactive); in the experiment with 786-0 it was 2.68 µM (inactive); in the experiment on SF-295 it was 1.62 µM (inactive); with BT-549 it was 3.14 µM (inactive). Besides, the GI50 in the experiment with SNB-75 was 2.76 µM (inactive); in the experiment on MDA-MB-231, 6.97 µM (inactive); with CAKI-1, 15.5 µM (inactive); with NCI-H226, 7.93 µM (inactive); in the experiment with ACHN, 2.31 µM (inactive); in the experiment with MDA-MB-435, 7.8 µM (inactive).
Take `COc1c(C)c(C/C=C(\C)CC/C=C(\C)CCC=C(C)C)c(OC)c(OC)c1OC`: the GI50 in the experiment on DU-145 is > 100 µM (inactive); in the experiment with MCF7, 44.2 µM (inactive); in the experiment with UACC-257 it was 64.9 µM (inactive); with Hs-578T it was > 100 µM (inactive); in the experiment on OVCAR-4, > 100 µM (inactive); in the experiment on A549 it was 49.3 µM (inactive). In addition, the GI50 was 83.9 µM (inactive) in the experiment with EKVX; > 100 µM (inactive) in the experiment on HOP-62; > 100 µM (inactive) with M14; > 100 µM (inactive) in the experiment with 786-0; 75 µM (inactive) in the experiment with SF-295; > 100 µM (inactive) with BT-549. Besides, the GI50 with SNB-75 was > 100 µM (inactive); with MDA-MB-231, > 100 µM (inactive); with SK-MEL-2, > 100 µM (inactive); in the experiment with CAKI-1, > 100 µM (inactive); in the experiment on LOX IMVI, 76.6 µM (inactive); in the experiment on ACHN, > 100 µM (inactive). Further, the GI50 in the experiment with MDA-MB-435 was 21.5 µM (inactive).
As to `O=c1[nH]c2ccc(CC(=S)N3CCN(c4ccccc4)CC3)cc2s1`, the GI50 in the experiment on DU-145 is 51.6 µM (inactive); with MCF7 it was 92 µM (inactive); in the experiment with UACC-257, > 100 µM (inactive); in the experiment with Hs-578T, 13.8 µM (inactive); in the experiment on EKVX, 26.5 µM (inactive); in the experiment on HOP-62 it was 16.6 µM (inactive). For the same compound, the GI50 in the experiment on M14 is 23.1 µM (inactive); in the experiment on 786-0 it was 34.4 µM (inactive); with SF-295, 12.9 µM (inactive); in the experiment with BT-549, 26.6 µM (inactive); in the experiment on MDA-MB-231, 21.9 µM (inactive); in the experiment on SK-MEL-2, 82.2 µM (inactive). Also, the GI50 with CAKI-1 was 77.1 µM (inactive); in the experiment on LOX IMVI it was 67 µM (inactive); in the experiment on NCI-H226 it was 14.3 µM (inactive); in the experiment on ACHN, 18 µM (inactive); with MDA-MB-435, 72.8 µM (inactive).
In the case of `CCOC(=O)c1ccc(-c2onc(C)c2Br)[nH]1`, the GI50 in the experiment with DU-145 is 55.3 µM (inactive); in the experiment with MCF7 it was 27.7 µM (inactive); in the experiment on UACC-257, 47.2 µM (inactive); in the experiment on Hs-578T, 70.5 µM (inactive); with OVCAR-4 it was 43.2 µM (inactive); with A549 it was 33 µM (inactive). Besides, the GI50 in the experiment with EKVX was 37 µM (inactive); in the experiment on HOP-62 it was 59.3 µM (inactive); with M14, 62.7 µM (inactive); in the experiment with 786-0, 43.4 µM (inactive); in the experiment with SF-295 it was 39.5 µM (inactive); with BT-549 it was 34.7 µM (inactive). Besides, the GI50 in the experiment on SNB-75 is 41.7 µM (inactive); in the experiment on MDA-MB-231, 41.7 µM (inactive); with SK-MEL-2 it was 76 µM (inactive); in the experiment with CAKI-1, 50.8 µM (inactive); with ACHN, 37.6 µM (inactive); with MDA-MB-435, 85.1 µM (inactive).
Regarding `COc1ccc(C(=O)CC(c2ccccc2)[C@H]2C(c3ccc(OC)cc3)=Nc3c(nc(SC)n(C)c3=O)NC2c2ccccc2)cc1` (stereo partly specified), the GI50 in the experiment with DU-145, with MCF7, in the experiment on UACC-257, in the experiment on Hs-578T, with A549 and in the experiment on EKVX was > 100 µM (inactive) throughout. Also, the GI50 in the experiment with HOP-62, in the experiment with M14, with 786-0, with SF-295, in the experiment on BT-549 and with MDA-MB-231 was > 100 µM (inactive) in each case. Besides, the GI50 in the experiment on SK-MEL-2, with CAKI-1, in the experiment with LOX IMVI, in the experiment with NCI-H226 and in the experiment on MDA-MB-435 was > 100 µM (inactive) throughout.
With `CCc1n[nH]c(=O)n1N=C(c1ccccc1)c1ccccc1`, the GI50 with DU-145, with MCF7, in the experiment with UACC-257, with Hs-578T, in the experiment with OVCAR-4 and in the experiment with A549 was > 100 µM (inactive) each time. The GI50 is 32 µM (inactive) in the experiment on EKVX; > 100 µM (inactive) in the experiment with HOP-62; > 100 µM (inactive) with M14; > 100 µM (inactive) in the experiment with 786-0; > 100 µM (inactive) with SF-295; > 100 µM (inactive) in the experiment on BT-549. Also, the GI50 in the experiment with MDA-MB-231, in the experiment with SK-MEL-2, with CAKI-1, in the experiment on LOX IMVI, in the experiment with NCI-H226 and in the experiment with ACHN was > 100 µM (inactive) throughout. Besides, the GI50 in the experiment on MDA-MB-435 was > 100 µM (inactive).
Turning to `CC(=O)C(C(C)=O)[C@@H]1OC(C)(C)O[C@@H]1[C@H]1COC(C)(C)O1`, the GI50 is 51.8 µM (inactive) in the experiment on DU-145; 43.8 µM (inactive) with MCF7; 64 µM (inactive) in the experiment on UACC-257; 28.4 µM (inactive) in the experiment with Hs-578T; 51.1 µM (inactive) in the experiment with OVCAR-4; > 100 µM (inactive) in the experiment on A549. In addition, the GI50 with EKVX is 27.7 µM (inactive); with HOP-62, 45.9 µM (inactive); in the experiment on M14 it was 47.4 µM (inactive); with 786-0, 32.1 µM (inactive); in the experiment with SF-295, > 100 µM (inactive); in the experiment with BT-549, 34.9 µM (inactive). In addition, the GI50 in the experiment with MDA-MB-231 is > 100 µM (inactive); in the experiment on SK-MEL-2, 28.5 µM (inactive); in the experiment on CAKI-1 it was 53.2 µM (inactive); in the experiment with LOX IMVI it was 87.1 µM (inactive); in the experiment on NCI-H226 it was > 100 µM (inactive); in the experiment with ACHN, > 100 µM (inactive). In addition, the GI50 with MDA-MB-435 is 38.7 µM (inactive).
